{"source": "paper PMC12610274", "about": "“Identification of Marrubiin as a Cathepsin C Inhibitor for Treating Rheumatoid Arthritis” (Molecules, 2025)", "key": {"Cat G": {"system": "Cat G", "experiment": "Stability (protein level) of NSPs in U937 cells, Western blot, Cat G", "format": "cell-based, human", "conditions": "U937, 10 μM", "method": "(§1) The Western blot experiments in this study were performed as described below. Cells in the logarithmic growth phase were collected in appropriate numbers according to different experimental purposes. After being thoroughly washed with phosphate-buffered saline and centrifuged, the cell pellets were resuspended in phosphate-buffered saline to obtain single-cell suspensions. Cells were fully lysed using RIPA buffer (Beyotime, P0013B) supplemented with EDTA-free protease and phosphatase inhibitor (Abcam, ab201120). Total cellular protein solutions were obtained after centrifugation to remove cell debris. The isolated proteins were quantified using the BeyoBCA protein assay kit (Beyotime, P0399M) following the operational protocol. The quantified protein samples were thoroughly mixed with protein loading buffer, boiled on a dry bath for 5 min, and then cooled to room temperature for Western blot analysis. […] Finally, enhanced chemiluminescent horseradish peroxidase substrate (Tanon Science & Technology Co., Ltd., Shanghai, China, 180-506) was used to visualize protein bands on a ChemiDoc XRS system (Bio-Rad Laboratories, Inc., Hercules, CA, USA), and the protein bands were quantified using Image Lab analysis software (Version 6.1) (Bio-Rad). […]"}, "CTSS": {"target": "T1, CTSS (Homo sapiens, UniProt P25774)", "T1 construct": "purchased R&D Systems", "T1 sequence (P25774 115-331)": "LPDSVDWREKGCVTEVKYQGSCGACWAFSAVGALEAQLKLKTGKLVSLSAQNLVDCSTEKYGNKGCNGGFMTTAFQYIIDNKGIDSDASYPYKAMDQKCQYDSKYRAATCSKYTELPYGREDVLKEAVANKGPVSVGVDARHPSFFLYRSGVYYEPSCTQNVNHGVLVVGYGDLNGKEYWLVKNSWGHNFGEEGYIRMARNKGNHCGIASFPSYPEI", "experiment": "Human recombinant cathepsins isolated enzyme assay, CTSS", "format": "biochemical", "conditions": "read-out: CTSS Enz (IC50: μM)", "from_the_text": "(§2) The protocol for evaluating the inhibitory potency of compounds against other cathepsins referred to the CTSC activity assay. Recombinant human CTSB, CTSL, CTSS and CTSK for testing were also purchased from R&D Systems Biotechnology Company. Recombinant human Cat G, NE, and PR3 For testing were purchased from MedChemExpress. A multi-functional microplate reader was used to measure the absorption of Z-Leu-Arg-AMC at excitation/emission wavelengths of 380/460 nm to assess the activity changes of CTSB and CTSL, while the absorption of MCA-Arg-Pro-Lys-Pro-Val-Glu-NVAL-Trp-Arg-Lys(DNP)-NH2 at 320/405 nm was measured to evaluate the activity changes of CTSS and CTSK. Different assay buffers were prepared for diluting samples and measuring the activities of specific NSPs: a buffer containing 50 mM Tris and 750 mM NaCl (pH 7.4) was used for NE and PR3; a buffer containing 50 mM Tris, 750 mM NaCl, 5 mM EDTA (pH 7.4) was used for Cat G; and a buffer containing 25 mM MES, 50 mM NaCl, 5 mM DTT (pH 6.0) was used for CTSC. Synthetic substrates were employed to assess the activities of NSPs and CTSC: H-Gly-Arg-AMC for CTSC, N-MeSuc-Ala-Ala-Pro-Val-pNA for NE, aminobenzoyl-Val-Ala-Asp-Cys-Ala-Asp-Gln-ethylenediamine 2,4-dinitrophenyl for PR3, and N-Suc-Ala-Ala-Pro-Phe-pNA for Cat G. Each group of tests was independently repeated at least 3 times, and IC50 values were calculated using SPSS 10.0."}, "PR3": {"system": "PR3", "experiment": "PR3 activity in blood and bone marrow of mice", "format": "in vivo, C57BL/6 mice", "conditions": "30 mg/kg daily gavage, 7 days", "method": "A total of 25 C57BL/6 mice (6–8 weeks old, weighing approximately 20 g, with equal numbers of males and females) were randomly divided into five groups. Mice in the compound-treated groups were orally administered the compound once daily at doses of 0.3, 3, and 30 mg/kg for 7 consecutive days. […] Mice in the normal group were given an equal volume of normal saline at the same time points. The body weight, death rate, and behavior were observed and recorded daily for one week. After 7 days, bone marrow and blood samples were collected from the mice and lysed using 8% Triton X-100 buffer. The lysates were stored at −20 °C until testing. The activity assays for CTSC and NSPs were performed as described above. The mice were anesthetized and the tissues were taken for H&E staining."}, "NSPs": {"system": "NSPs", "experiment": "Stability (protein level) of NSPs in U937 cells, Western blot, NSPs together", "format": "cell-based, human", "conditions": "U937, 10 μM, 24 h", "method": "as §1"}, "CTSB": {"target": "T2, CTSB (Homo sapiens, UniProt P07858)", "T2 construct": "purchased R&D Systems", "experiment": "Human recombinant cathepsins isolated enzyme assay, CTSB", "format": "biochemical", "conditions": "read-out: CTSB Enz (IC50: μM)", "from_the_text": "as §2"}}, "data": [{"compound": "C[C@@H]1C[C@H]2OC(=O)[C@@]3(C)CCC[C@@](C)([C@@H]23)[C@@]1(O)CCc1ccoc1", "note": "[Marrubiin, marrubiin]", "values": [{"measurement": "Cat G protein level, % of original level", "setting": "Cat G; 96 h", "value": 30.2, "unit": "%"}, {"measurement": "Cat G protein level, % of original level", "setting": "Cat G; 5 days", "value": 12.3, "unit": "%"}, {"measurement": "IC50", "setting": "CTSS", "value": "> 5", "unit": "µM"}, {"measurement": "remaining activity rate of PR3", "setting": "PR3; blood", "value": "~13.6", "unit": "%"}, {"measurement": "remaining activity rate of PR3", "setting": "PR3; bone marrow", "value": "~25.8", "unit": "%"}, {"measurement": "content of NSPs, % of the original level", "setting": "NSPs", "value": "75.4–87.8%"}, {"measurement": "IC50", "setting": "CTSB", "value": "9.8 ± 1.1", "unit": "µM"}]}]}
